Assay results: paper PMC3609652 (The Biochemical journal, 2013)

Assays:
[1] = target: IgE^DNP (monoclonal anti-DNP IgE); test: tryptophan fluorescence quenching titration with monovalent hapten; assay type: binding
[2] = target: IgE^dansyl (monoclonal anti-dansyl IgE, clone 27–74); test: as above; assay type: binding

| Substance | Kd [1] [nM] | Kd [2] [nM] |
| --- | --- | --- |
| DNP | 22 ± 2 |  |
| dansyl |  | 54 ± 4 |
